As usually defined, the IC50 is the concentration that inhibits the measured activity by half.

These results are taken from article PMC9312238, “Novel Organoselenium Redox Modulators with Potential Anticancer, Antimicrobial, and Antioxidant Activities” (Antioxidants, 2022).

Assay [1] can be described thus: DPPH radical scavenging bioassay. The assay is classed as biochemical. As to conditions: for radical scavenging activity, DPPH assay: compound 1 mM in MeOH, read after 0.5 h at 517 nm; for IC50: concentration decreasing absorbance by 50%. The text has this: The antioxidant activity was estimated by ABTS and DPPH bioassays, according to the reported literature method. More details are in the Supplementary Materials.
Recently, OSe compounds were thoroughly used as redox modulators to control many complicated diseases (e.g., cancer and neurodegenerative diseases). The DPPH and ABTS bioassays were extensively used as rapid tools for estimating the antioxidant potency of OSe compounds [50, 51]. Ascorbic acid was used as a standard control, and the antioxidant potency was measured by the ability of the compounds to decolorize the characteristic colors of the ABTS^. and DPPH^. radicals by following the colorimetric decline in absorbance at 734 and 517 nm, respectively (Figure 2).
Figure 2 Evaluation of the antioxidant properties of the OSe compounds employing the ABTS and DPPH assays. All measurements are mean ± SD. In the DPPH assay: absorbance was read after 0.5 h of mixing […] of DPPH with […] of OSe compounds (1 mM, MeOH) at 517 nm. In the ABTS assay: […] of each OSe compound (1 mM, phosphate-buffered methanol) was mixed with the ABTS solution (60 mM), and absorbance was monitored at 734 nm. […]
1.1.1. The antioxidant activity
The hydrogen atom or electron donation ability of the corresponding compounds was measured by estimating the bleaching of the purple color of a methanolic solution of DPPH [29]. This spectrophotometric assay uses stable DPPH. reagent. The sample was prepared by adding […] of the OSe compounds (1 mM in methanol) to […] DPPH in methanol. After 30 min of incubation in the dark, the absorbance was read against a blank at 517 nm. Ascorbic acid (vitamin C) and ebselen were used as standard antioxi-dants (positive control). A blank sample was run without DPPH. A negative control sam-ple was run using methanol instead of the sample. The radical scavenging activity was calculated using the following equation:
(§1) Inhibition%= (Ablank-Asample)/(Ablank)*100. (1)

In another assay the test system is Staphylococcus aureus. The assay can be described thus: Agar diffusion assay, S. aureus. The assay is classed as cell-based. Details: S. aureus A% (activity index): concentration or dose not given beside the values. As to conditions: for S. aureus A% (activity index): zone of test compound / zone of standard (ampicillin) x 100; for zone of inhibition at 20 µM: Staphylococcus aureus, read-out: S. aureus IZD (mm). The protocol: The antimicrobial activities of the OSe compounds were evaluated against C. albicans yeast, as well as E. coli and S. bacteria, employing the agar well diffusion assay. Furthermore, the MICs (in µM) were determined by the microdilution method according to the reported protocol. More details are in the Supporting Information.
Compounds were evaluated for their antimicrobial activity against the Gram-negative bacteria Escherichia coli (E. coli) and the Gram-positive bacteria Staphylococcus aureus (S. aureus), as well as the Candida albicans (C. albicans) fungal strain, using the agar diffusion assay. Ampicillin and clotrimazole were used as standards. Indeed, the antimicrobial properties of the OSe compounds were also obtained from the activity index percentage (A%) according to Equation (2). (2) A%=Zone of inhibition by test compound diametre/Zone of inhibition by standard diametre×100 . […]
1.1.1. The antimicrobial activity
The antimicrobial activities of the OSe compounds were evaluated against C. albicans yeast as well as E. coli gram-negative and S. aureus gram-positive bacteria employing the agar well diffusion assay. Briefly, a concentration of 1 mM was prepared for each compound by dissolving in DMSO. Paper discs of standard size […] were steri-lized in an autoclave and soaked in 20 µL of the test compounds, and placed in the Petri dishes, which in turn contain a nutrient media (agar 20 g, peptone 5 g, and beef extract 3 g) seeded with the dedicated strain. Incubation lasted for 24 h at 36
Furthermore, the MICs (in µM) were determined by the microdilution method according to the reported protocol. […]
as §1
Background: In agar diffusion tests the substance spreads into inoculated agar from a disc or well.

The test system of the next assay is HepG2 cells. Nature of the assay: cells. The note with it: for IC50: MTT, 24 h incubation, HepG2 cells, read-out: HepG2 IC50; for HepG2 TI (IC50 WI-38 / IC50 HepG2): therapeutic index, ratio of WI-38 IC50 to HepG2 IC50. In kind it is cell-based, human. The method, then:
Cells were obtained from the ATCC Company (VACSERA), Cairo, Egypt. MTT assay were performed according to the literature method. More details are in the Supporting Information.
Recently, OSe compounds gained much attention as possible drug candidates due to their various pharmacological properties. Our group has reported several OSe candidates with potential anticancer, antimicrobial, and antioxidant activities. Therefore, the anticancer attributes of the newly prepared OSe compounds were estimated using the MTT assay against MCF-7 and HepG2 and compared with their respective cytotoxicity in WI-38 primary cells. The anthracycline drug doxorubicin was used as the standard. The minimal inhibition concentration required to kill 50% of the cells (IC50) was calculated from dose-response curves presented in Table 1. Moreover, the therapeutic index (TI) was also calculated (according to Equation (1)), which is considered a measure of the selectivity and safety of the synthesized compounds. (1) TI=IC50 for the normal WI38 cells/IC50 for the cancer cells […]
1.1. The biological assays
1.1.1. The anticancer activity
The breast adenocarcinoma (MCF-7), Hepatocellular carcinoma (HEPG-2), and nor-mal fibroblast (WI-38) cells were obtained from ATCC via Holding company for biological products and vaccines (VACSERA), Cairo, Egypt. The reagents RPMI-1640 medium, MTT, DMSO, and fetal bovine serum was obtained from Sigma Aldrich. Dulbecco’s modified Eagle’s medium was used as the culture medium for the cells, and the cytotoxicity was evaluated using the reported MTT assay. Doxorubicin was used as the positive reference, and the IC50 values were obtained from the corresponding dose-response curve.
This colorimetric assay is based on converting the yellow tetrazolium bromide (MTT) to a purple formazan derivative by mitochondrial succinate dehydrogenase in viable cells.
Cell lines were cultured in RPMI-1640 medium with 10% fetal bovine serum. Antibiotics added were 100 units/ml penicillin and 100µg/ml streptomycin at 37 C in a 5% Co2 incu-bator. The cell lines were seeded in a 96-well plate at a density of 1.0x10^4 cells/well. at 37 C for 48 h under 5% Co2. After incubation, the cells were treated with different concentra-tions of compounds and incubated for 24 h. After 24 h of drug treatment, 20 µl of MTT solution at 5mg/ml was added and incubated for 4 h. Finally, dimethyl sulfoxide (DMSO) in the volume of 100 µl is added to each well to dissolve the purple formazan formed. The colorimetric assay is measured and recorded at an absorbance of 570 nm using a plate reader (EXL 800, USA). The percentage of the relative cell viability was calculated as (A570 of treated samples/A570 of the untreated sample) X 100. […]
as §1

A further assay relates to Candida albicans. Nature of the assay: microbe, parasite or virus in culture. The assay is classed as cell-based. Details: C. albicans A% (activity index): concentration or dose not given beside the values. The note with it: for C. albicans A% (activity index): zone of test compound / zone of standard (clotrimazole) x 100; for zone of inhibition at 20 µM: Candida albicans, read-out: C. albicans IZD (mm). In outline: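 Agar well/disc diffusion: discs soaked in […] in DMSO were placed on nutrient agar seeded with each strain and incubated 24 h at 36 °C, in triplicate. Activity index % = test zone diameter / standard zone diameter × 100, with ampicillin or clotrimazole as standard. MICs (µM) by microdilution.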

The mark [2] stands for this setting: inhibition zone diameter, six-mm disks soaked with 20 μM of compound.

Where two headings read alike, the source gives them in different places.

For “2-((4-(2-(3-hydroxynaphthalen-1(4H)-ylidene)hydrazinyl)phenyl)selanyl)-N-phenylacetamide [Compound 9]”, in assay [1], the “radical scavenging activity, DPPH assay” value turned out to be 93% and inhibition was half-maximal at 20.64 ± 0.14 µM (IC50). The “S. aureus IZD (mm)” value in the assay with Staphylococcus aureus (setting [2]) was 19 mm. Also, the “S. aureus A% (activity index)” value in the assay on Staphylococcus aureus was 91%. Also, in the assay with HepG2 cells, the IC50 came out at 7.48 ± 0.6 µM and the “HepG2 TI (IC50 WI-38 / IC50 HepG2)” value was determined as 5.3. Also, the “C. albicans IZD (mm)” value in the assay with Candida albicans (setting [2]) is reported as 21 mm. In addition, the “C. albicans A% (activity index)” value with Candida albicans was 88%.

`Nc1ccc([Se]CC(=O)Nc2ccccc2)cc1` [Compound 4, 2-((4-aminophenyl)selanyl)-N-phenylacetamide]: in assay [1], the “radical scavenging activity, DPPH assay” value is 80%. The zone of inhibition at 20 µM in the assay with Staphylococcus aureus (setting [2]) is 15 mm; with Candida albicans (setting [2]), 13 mm. Moreover, in the assay on Staphylococcus aureus, the “S. aureus A% (activity index)” value is 71%. Also, the IC50 in the assay with HepG2 cells (Homo sapiens) worked out at 18.3 ± 1.3 µM. The “HepG2 TI (IC50 WI-38 / IC50 HepG2)” value with HepG2 cells worked out at 2.9. In addition, the “C. albicans A% (activity index)” value in the assay on Candida albicans is recorded as 54%.

On to `CCOc1ccc(NC(=O)C[Se]c2ccc(N)cc2)cc1` [Compound 5, 2-((4-aminophenyl)selanyl)-N-(4-ethoxyphenyl)acetamide], for which, in assay [1], the “radical scavenging activity, DPPH assay” value worked out at 71%. In addition, the zone of inhibition at 20 µM in the assay with Staphylococcus aureus (setting [2]) was 12 mm; with Candida albicans (setting [2]) it was 8 mm. In addition, the “S. aureus A% (activity index)” value in the assay with Staphylococcus aureus is reported as 57%. For the same molecule, the half-maximal inhibitory concentration (IC50) in the assay on HepG2 cells (Homo sapiens) was above 100 µM. The “C. albicans A% (activity index)” value in the assay on Candida albicans is recorded as 33%.

For `Nc1ccc([Se]CC(=O)N[C@@H](Cc2c[nH]c3ccccc23)C(=O)O)cc1` [Compound 6, (2-((4-aminophenyl)selanyl)acetyl)tryptophan], the “radical scavenging activity, DPPH assay” value in assay [1] came out at 91%. The IC50 in assay [1] is 24.03 ± 0.23 µM; with HepG2 cells (Homo sapiens) it was 8.86 ± 0.7 µM. The zone of inhibition at 20 µM with Staphylococcus aureus (setting [2]) worked out at 18 mm; in the assay on Candida albicans (setting [2]), 20 mm. Besides, in the assay with Staphylococcus aureus, the “S. aureus A% (activity index)” value is recorded as 86%. Besides, the “HepG2 TI (IC50 WI-38 / IC50 HepG2)” value in the assay with HepG2 cells was 3.2. Besides, in the assay on Candida albicans, the “C. albicans A% (activity index)” value came to 83%.

For the molecule `O=C(O)CCC(=O)Nc1ccc([Se]CC(=O)Nc2ccccc2)cc1` [Compound 11, 4-oxo-4-((4-((2-oxo-2-(phenylamino)ethyl)selanyl)phenyl)amino)butanoic acid], the “radical scavenging activity, DPPH assay” value in assay [1] is recorded as 76%. Further, the zone of inhibition at 20 µM in the assay with Staphylococcus aureus (setting [2]) and with Candida albicans (setting [2]) was 13 mm each time. For the same molecule, in the assay on Staphylococcus aureus, the “S. aureus A% (activity index)” value amounted to 62%. Besides, the IC50 in the assay on HepG2 cells (Homo sapiens) is 26.7 ± 1.9 µM. Also, the “HepG2 TI (IC50 WI-38 / IC50 HepG2)” value in the assay on HepG2 cells was 2.5. Moreover, the “C. albicans A% (activity index)” value in the assay with Candida albicans is 54%.

On to `O=C(C[Se]c1ccc(N2C(=O)CCC2=O)cc1)Nc1ccccc1` [Compound 14, 2-((4-(2,5-dioxopyrrolidin-1-yl)phenyl)selanyl)-N-phenylacetamide], for which the “radical scavenging activity, DPPH assay” value in assay [1] stood at 77%. The zone of inhibition at 20 µM in the assay with Staphylococcus aureus (setting [2]) was determined as 14 mm; with Candida albicans (setting [2]), 15 mm. Further, the “S. aureus A% (activity index)” value in the assay with Staphylococcus aureus came to 67%. The IC50 with HepG2 cells (Homo sapiens) came out at 12.6 ± 1 µM. Further, the “HepG2 TI (IC50 WI-38 / IC50 HepG2)” value with HepG2 cells was found to be 5. Further, the “C. albicans A% (activity index)” value in the assay with Candida albicans came out at 63%.

As for `C[Se]c1ccc(NC(=O)C=CC(=O)O)cc1` [Compound 15, 4-((4-(methylselanyl)phenyl)amino)-4-oxobut-2-enoic acid], the “radical scavenging activity, DPPH assay” value in assay [1] amounted to 87%. Also, the zone of inhibition at 20 µM is 15 mm in the assay on Staphylococcus aureus (setting [2]) and 16 mm in the assay with Candida albicans (setting [2]). Besides, in the assay with Staphylococcus aureus, the “S. aureus A% (activity index)” value is listed as 71%. Also, the IC50 in the assay with HepG2 cells (Homo sapiens) was 9.94 ± 0.8 µM. Further, the “HepG2 TI (IC50 WI-38 / IC50 HepG2)” value in the assay with HepG2 cells is listed as 2. For the same molecule, in the assay on Candida albicans, the “C. albicans A% (activity index)” value is 67%.

For `C[Se]c1ccc(NC(=O)CCC(=O)O)cc1` [Compound 16, 4-((4-(methylselanyl)phenyl)amino)-4-oxobutanoic acid], in assay [1], the “radical scavenging activity, DPPH assay” value is reported as 67%. The “S. aureus A% (activity index)” value in the assay on Staphylococcus aureus came out at 43%. Moreover, in the assay on HepG2 cells (Homo sapiens), the IC50 came out at 32.6 ± 2.3 µM. For the same molecule, the “HepG2 TI (IC50 WI-38 / IC50 HepG2)” value in the assay with HepG2 cells is 0.7. For the same molecule, in the assay on Candida albicans (setting [2]), the zone of inhibition at 20 µM turned out to be 12 mm. In addition, the “C. albicans A% (activity index)” value in the assay on Candida albicans is listed as 50%.
